# Columns and labels:
# [1] = target: T1, ATP-dependent translocase ABCB1 (Homo sapiens, UniProt P08183); assay: TP_TRANSPORTER: RT-PCR in HK-2 cell; type: functional, cell-based
# [2] = target: T1, ATP-dependent translocase ABCB1; assay: TP_TRANSPORTER: Western blot, HK-2 cells; type: functional, cell-based
# T1 sequence (P08183 whole entry): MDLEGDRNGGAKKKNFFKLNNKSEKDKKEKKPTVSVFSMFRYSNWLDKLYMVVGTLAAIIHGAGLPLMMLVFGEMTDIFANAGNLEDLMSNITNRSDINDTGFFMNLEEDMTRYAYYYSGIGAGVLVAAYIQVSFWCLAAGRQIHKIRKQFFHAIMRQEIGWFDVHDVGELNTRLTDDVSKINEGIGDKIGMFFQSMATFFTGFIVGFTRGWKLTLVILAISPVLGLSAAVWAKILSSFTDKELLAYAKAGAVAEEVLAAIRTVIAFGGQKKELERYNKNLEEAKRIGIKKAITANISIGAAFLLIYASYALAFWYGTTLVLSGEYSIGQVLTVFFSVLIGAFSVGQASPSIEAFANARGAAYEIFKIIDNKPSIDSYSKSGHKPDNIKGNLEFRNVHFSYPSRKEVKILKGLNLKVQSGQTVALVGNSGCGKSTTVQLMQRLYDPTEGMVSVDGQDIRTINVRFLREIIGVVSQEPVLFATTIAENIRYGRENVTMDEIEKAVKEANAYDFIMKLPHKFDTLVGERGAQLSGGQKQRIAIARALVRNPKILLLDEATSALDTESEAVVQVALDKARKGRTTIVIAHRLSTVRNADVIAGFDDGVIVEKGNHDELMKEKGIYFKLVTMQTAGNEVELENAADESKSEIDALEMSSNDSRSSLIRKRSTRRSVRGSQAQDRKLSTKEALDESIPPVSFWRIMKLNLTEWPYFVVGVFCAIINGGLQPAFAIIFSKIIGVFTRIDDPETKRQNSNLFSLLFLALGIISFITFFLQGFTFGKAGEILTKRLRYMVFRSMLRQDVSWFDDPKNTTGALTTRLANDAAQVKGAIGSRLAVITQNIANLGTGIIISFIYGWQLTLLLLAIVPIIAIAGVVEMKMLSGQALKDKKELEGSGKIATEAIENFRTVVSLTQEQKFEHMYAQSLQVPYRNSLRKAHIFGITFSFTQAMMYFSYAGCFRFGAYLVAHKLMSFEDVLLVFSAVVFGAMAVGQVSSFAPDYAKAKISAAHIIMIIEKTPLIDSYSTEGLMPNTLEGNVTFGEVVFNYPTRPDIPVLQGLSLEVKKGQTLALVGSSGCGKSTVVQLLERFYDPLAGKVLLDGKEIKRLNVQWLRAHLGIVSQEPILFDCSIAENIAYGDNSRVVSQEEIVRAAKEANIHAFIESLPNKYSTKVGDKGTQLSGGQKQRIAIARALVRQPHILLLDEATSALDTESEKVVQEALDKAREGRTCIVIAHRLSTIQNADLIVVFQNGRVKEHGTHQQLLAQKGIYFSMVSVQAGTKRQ
SMILES,Activity [1],Activity [2]
COc1ccc(CCN(C)CCCC(C#N)(c2ccc(OC)c(OC)c2)C(C)C)cc1OC (stereo unspecified),is not an inducer [-],is not an inducer [-]
CC(=O)Nc1ccc2c(c1)Cc1ccccc1-2 [2-ACETYLAMINOFLUORENE],inducer [Decrease],inducer [Decrease]
Cc1ccc2cc3c(ccc4ccccc43)c3c2c1CC3 [3-METHYLCHOLANTHRENE],,inducer [Decrease]
C[C@]12CCC(=O)C=C1CC[C@@H]1[C@@H]2[C@@H](O)C[C@]2(C=O)[C@@H](C(=O)CO)CC[C@@H]12 [ALDOSTERONE],,inducer [+]
CN/C(=N/CCSCc1nc[nH]c1C)NC#N [CIMETIDINE],is not an inducer [-],is not an inducer [-]
C[C@@H]1C[C@H]2[C@@H]3CCC4=CC(=O)C=C[C@]4(C)[C@@]3(F)[C@@H](O)C[C@]2(C)[C@@]1(O)C(=O)CO [DEXAMETHASONE],inducer [+],inducer [+]
CCCCCCCCCCCCCCCCOC[C@H](COP(=O)([O-])OCC[N+](C)(C)C)OC(C)=O [PLATELET ACTIVATING FACTOR],inducer [+],inducer [+]
CC(=O)[C@H]1CC[C@H]2[C@@H]3CCC4=CC(=O)CC[C@]4(C)[C@H]3CC[C@]12C [PROGESTERONE],is not an inducer [-],is not an inducer [-]
COc1cc(Cc2cnc(N)nc2N)cc(OC)c1OC [TRIMETHOPRIM],is not an inducer [-],is not an inducer [-]
